Test results taken from US20060045905A1, “Composition for repressing transformation growth factor beta” (Taiyokagaku Co., Ltd., priority 2004, published 2006).

Tested on: mice
Format: in vivo
Settings: oral administration of theanine by 5 g/kg
Source text: Theanine used in the invention has a high security. […] Furthermore, theanine is known as a principal component of deliciousness of tea and used as a food additive for use as gustatory. An amount of theanine to be added is not limited under the Food Sanitation Law. Moreover, differing from conventional medical substances, theanine has no adverse side effect. Consequently, the composition of the invention can be used as a safe and effective composition for repressing TGF-β.

SMILES: CCNC(=O)CC[C@H](N)C(=O)O [theanine, L-theanine]
- mortality in acute toxicity test: no mice died
